According to US8494269B2, “Method and system for screening of a to-be-analyzed candidate as a skin-whitening agent” (National Sun Yat-Sen University, priority 2009, dated 2013):

Columns and labels:
[1] = test system: zebrafish larvae; experiment: Zebrafish larvae skin-whitening screen, number of valid pixels by Image Scion; format: in vivo, zebrafish (Danio Rerio); conditions: for mean of the number of "valid pixels" versus concentration of the administered candidate: FIGS. 11, 12 and 13, 48 h exposure, Image Scion; for concentration giving statistically significant reduction of "valid pixels" in the images of the zebrafish vs control group: embryos exposed 48 h in Hank's buffer/DMSO, p<0.05, ANOVA followed by Duncan's method, Image Scion index 150-254; for conclusion of the screening as skin-whitening agent: second feature parameter smaller than the first with p<0.05
Experimental: The preparation of the zebrafish embryos was similar to, but with small modifications from, that disclosed in M. Westerfield (2007), The Zebrafish Book: A Guide for the Laboratory Use of Zebrafish (Danio Rerio), 5th edit. University of Oregon Press, Eugene, Oreg. First, one female fish and two male fish were put in a breeding tank having an acrylic grid under a water temperature of 28.5 degrees Celsius. Then, the breeding tank was made to undergo a first light-dark cycle of 14 hours of light and 10 hours of darkness. Subsequently, during the second light-dark cycle, the female fish and the male fish would respectively produce eggs and sperms for fertilization so as to obtain fertilized eggs. These fertilized eggs are referred to as fertilized eggs from “the same parental generation”. Next, after an hour, the fertilized eggs were removed from the breeding tank with a dropper, and were disposed in a Petri dish containing the Hank's buffer prepared according to the above-disclosed formula. Later, the Petri dish was disposed in an incubator (RI-80, FIRSTEK, Taiwan) under a controlled temperature of 28.5 degrees Celsius, and a controlled light-dark cycle of 14 hours of light and 10 hours of darkness for a 9-hour breeding process to allow development of the fertilized eggs into embryos. Subsequently, a Leica Z16 APO stereomicroscope (Leica, Heerbrugg, Switzerland) was used for the observation of the development of various embryos. Based on the observations, only well-developed embryos were kept for use in the experiments that followed.
First, arbutin (Sigma, Cat. No. A4256), N-phenylthiourea (Sigma, Cat. No. P7629) and kojic acid (Sigma, Cat. No. K3125) were respectively dissolved in a 2% dimethyl sulfoxide (DMSO) solution prepared from Hank's buffer to result in arbutin solutions with concentrations of 0.1 mM, 0.2 mM, 1 mM, 2 mM, 10 mM and 20 mM, N-phenylthiourea solutions with concentrations of 0.002 mM, 0.02 mM, 0.2 mM, 0.4 mM, 1 mM and 2 mM, and kojic acid solutions with concentrations of 0.2 mM, 1 mM, 2 mM, 20 mM, 40 mM and 100 mM, respectively. Next, each well of a 96-well plate is provided with 100 μL of Hank's buffer. Subsequently, in accordance with the operational conditions set forth below in Table 4, the zebrafish prepared in the way previously described under subsection 2 of section A (Materials used during experimentation) were added respectively to the wells, to which 100 μL of the to-be-analyzed candidates, i.e., arbutin, N-phenylthiourea and kojic acid solutions of various concentrations, were added so as to result in the final concentrations as shown in Table 4. The 96-well plate was then disposed in an incubator under a controlled temperature of 28.5 degrees Celsius, and a controlled light-dark cycle of 14 hours of light and 10 hours of darkness for a 48-hour breeding period to allow the embryos to develop into zebrafish larvae. It should be noted herein that the above procedure was for preparation of a plurality of the “second groups of zebrafish” (i.e., test groups (A2˜A7, N2˜N7, K2˜K7)), while each of the “first groups of zebrafish” (each for a kind of the to-be-tested candidate) were prepared using the same breeding process without the administration of the to-be-analyzed candidates so as to form control groups (A1, N1, K1).
A tricaine methanesulfonate solution (MS-222) with a concentration of 168 ppm was used to anesthetize the zebrafish larvae prepared in Procedure A. Next, a depression slide (Micro Scientific Laboratories, Inc., U.S.A., Cat. No. MM-104SC) containing 1% methyl cellulose (Sigma, Cat. No. M0512) was used to mount the zebrafish. Subsequently, Leica Z16 APO stereomicroscope was used to acquire images of the zebrafish with a 25× magnification rate and a 3.372 ms exposure time.
Image Scion was used to determine the mean of the number of “valid pixels” (i.e., pixels whose grayscale levels fall within a predefined range) in the images corresponding to the zebrafish of the same group. […]

[2] = test system: zebrafish larvae; experiment: Zebrafish larvae skin-whitening screen, number of valid pixels by ImageJ version 1.40 g; format: in vivo, zebrafish (Danio Rerio); conditions: groups A1-A7, FIG. 14 vs FIG. 11; ImageJ threshold 0-85
Experimental: • (2) ImageJ version 1.40 g (ImageJ, National Institute of Health, Bethesda, Md., U.S.A.) with operation parameters set in Table 3 below for defining the predefined range for a pixel to be considered a “valid pixel”.
First, arbutin (Sigma, Cat. No. A4256), N-phenylthiourea (Sigma, Cat. No. P7629) and kojic acid (Sigma, Cat. No. K3125) were respectively dissolved in a 2% dimethyl sulfoxide (DMSO) solution prepared from Hank's buffer to result in arbutin solutions with concentrations of 0.1 mM, 0.2 mM, 1 mM, 2 mM, 10 mM and 20 mM, N-phenylthiourea solutions with concentrations of 0.002 mM, 0.02 mM, 0.2 mM, 0.4 mM, 1 mM and 2 mM, and kojic acid solutions with concentrations of 0.2 mM, 1 mM, 2 mM, 20 mM, 40 mM and 100 mM, respectively. Next, each well of a 96-well plate is provided with 100 μL of Hank's buffer. Subsequently, in accordance with the operational conditions set forth below in Table 4, the zebrafish prepared in the way previously described under subsection 2 of section A (Materials used during experimentation) were added respectively to the wells, to which 100 μL of the to-be-analyzed candidates, i.e., arbutin, N-phenylthiourea and kojic acid solutions of various concentrations, were added so as to result in the final concentrations as shown in Table 4. […]

SMILES | mean of the number of "valid pixels" versus concentration of the administered candidate [1] | concentration giving statistically significant reduction of "valid pixels" in the images of the zebrafish vs control group [1] | conclusion of the screening as skin-whitening agent [1] | comparison of results obtained using ImageJ version 1.40 g with those using Image Scion [2]
NC(=S)Nc1ccccc1 [N-phenylthiourea] | decreases with the concentration | at least 0.01 mM | suitable as skin-whitening agents | 
OC[C@H]1O[C@@H](Oc2ccc(O)cc2)[C@H](O)[C@@H](O)[C@@H]1O [arbutin] | decreases with the concentration | at least 0.05 mM | suitable as skin-whitening agents | no significant difference
O=c1cc(CO)occ1O [kojic acid] | decreases with the concentration | at least 10 mM | suitable as skin-whitening agents | 
